# Experiments:
# guinea-pig = settings: Subchronic dermal toxicity, hartley, Topical, dose end: 13 week, group: systemic, systemic / clinical chemistry / creatine phosphokinase / creatine phosphokinase + systemic / clinical chemistry / lactic acid dehydrogenase…
# rat [1] = settings: Prenatal developmental toxicity study, sprague dawley, Inhalation, Whole-Body, dose end: 15 GD
# rat [2] = settings: Developmental neurotoxicity study, sprague dawley, Oral, Feed, dose end: 63 PND, group: cannot be grouped
# mouse = settings: Subchronic oral toxicity in rodents, b6c3f1, Water, dose end: 13 week
# rat [3] = settings: Subchronic oral toxicity in rodents, fischer, Water, dose end: 13 week
# rat [4] = settings: Sub-acute repeat dose toxicity, Sprague Dawley, Oral, Gavage/Intubation, dose end: 28 day
# rat [5] = settings: Multigenerational reproductive toxicity study, sprague dawley, Oral, Feed, dose end: 2 generation
# rat [6] = settings: Multigenerational reproductive toxicity study, sprague dawley, Oral, Feed, dose end: 3 generation
# rat [7] = settings: Multigenerational reproductive toxicity study, sprague dawley, Oral, Feed, dose end: 3 generation; remark: listed apart in the source
# rat [8] = settings: Subchronic oral toxicity in rodents, other, Feed, dose end: 17 week, group: systemic
# rabbit = settings: Prenatal developmental toxicity study, new zealand white, Oral, Gavage/Intubation, dose end: 18 GD
# rat [9] = settings: Prenatal developmental toxicity study, sprague dawley, Oral, Gavage/Intubation, dose end: 15 GD
# dog [10] = settings: Subchronic oral toxicity in nonrodent, beagle, Capsule, dose end: 90 day, group: systemic
# rat [11] = settings: Subchronic oral toxicity in rodents, sprague dawley, Gavage/Intubation, dose end: 90 day, group: systemic, systemic / organ weight / liver / absolute + systemic / organ weight / liver / relative to body weight + systemic / pathology microscopic / …
# dog [12] = settings: Subchronic oral toxicity in nonrodent, beagle, Capsule, dose end: 90 day, group: systemic, systemic / pathology microscopic / liver / [other] + systemic / pathology microscopic / liver / hypertrophy + systemic / pathology …
# [13] = group: developmental, developmental / developmental malformation / bone / short + developmental / developmental malformation / bone / wavy + developmental / …
# [14] = group: developmental, developmental / developmental malformation / bone / wavy + developmental / developmental malformation / brain / dilated cerebral ventricle…
# [15] = group: maternal, reproductive / reproductive performance / resorptions / resorptions
# [16] = reproductive / reproductive performance / resorptions / resorptions + systemic / in life observation / body weight / body weight gain + …
# [17] = systemic / in life observation / body weight / fetal weight
# [18] = group: maternal, reproductive / reproductive performance / estrous cycle / abnormal
# [19] = group: systemic, systemic / organ weight / testes / absolute + systemic / organ weight / testes / relative to body weight + systemic / pathology gross / …
# [20] = group: systemic, systemic / pathology gross / sperm measure / sperm count + systemic / pathology gross / sperm measure / sperm motility
# [21] = group: systemic, systemic / organ weight / thymus / absolute + systemic / organ weight / thymus / relative to body weight
# [22] = group: systemic, systemic / clinical chemistry / glucose / glucose + systemic / clinical chemistry / luteinizing hormone (lh) / luteinizing hormone (lh) + …
# [23] = group: offspring, systemic / hematology / leukocyte (wbc) count differential / leukocyte (wbc) + systemic / hematology / monocytes / monocytes
# [24] = group: offspring, systemic / hematology / leukocyte (wbc) count differential / leukocyte (wbc) + systemic / in life observation / body weight / offspring (pup…
# [25] = group: parental, systemic / hematology / leukocyte (wbc) count differential / leukocyte (wbc) + systemic / in life observation / body weight / body weight
# [26] = group: offspring, developmental / developmental landmark / vaginal opening / vaginal opening + systemic / in life observation / body weight / offspring (pup) …
# [27] = group: parental, systemic / in life observation / body weight / body weight + systemic / organ weight / kidney / relative to body weight + systemic / organ …
# [28] = group: parental, systemic / pathology microscopic / kidney / mineralization + systemic / pathology microscopic / kidney / cyst + systemic / pathology …
# [29] = group: reproductive, reproductive / offspring survival early / litter size / litter size + reproductive / reproductive performance / estrous cycle / length + …
# [30] = group: reproductive, reproductive / reproductive performance / gestational length / gestational length
# [31] = group: offspring, developmental / developmental landmark / preputial separation / preputial separation + systemic / in life observation / body weight / …
# [32] = group: offspring, systemic / in life observation / food consumption / food consumption + systemic / pathology microscopic / kidney / degeneration
# [33] = group: parental, systemic / in life observation / food consumption / food consumption + systemic / organ weight / kidney / relative to body weight
# [34] = group: parental, systemic / pathology gross / sperm measure / sperm morphology
# [35] = group: reproductive, reproductive / offspring survival early / live fetuses / live fetuses
# [36] = systemic / in life observation / body weight / body weight gain + systemic / in life observation / food consumption / food consumption + …
# [37] = group: developmental, developmental / developmental malformation / bone / misshapen
# [38] = group: maternal, reproductive / reproductive performance / postimplantation loss / postimplantation loss + systemic / in life observation / body weight / …
# [39] = group: developmental, systemic / in life observation / body weight / fetal weight
# [40] = group: maternal, systemic / in life observation / clinical signs / respiration (rales) + systemic / in life observation / clinical signs / salivation + …
# [41] = systemic / pathology microscopic / liver / cytoplasmic alteration + systemic / pathology microscopic / liver / vacuolization
# [42] = systemic / pathology microscopic / liver / cytoplasmic alteration + systemic / pathology microscopic / liver / vacuolization + systemic / …
smiles,measurement,setting,value
COCCO [2-Methoxyethanol],LEL,guinea-pig,1000 mg/kg/day
same,LOAEL,guinea-pig,> 1000 mg/kg/day
same,NEL,guinea-pig,< 1000 mg/kg/day
same,NOAEL,guinea-pig,≥ 1000 mg/kg/day
same,LOAEL,rat [1]; [13],> 200 ppm
same,NOAEL,rat [1]; [13],≥ 200 ppm
same,LEL,rat [1]; [14],50 ppm
same,NEL,rat [1]; [14],< 50 ppm
same,LEL,rat [1]; [15],50 ppm
same,LOAEL,rat [1]; [15],> 200 ppm
same,NEL,rat [1]; [15],< 50 ppm
same,NOAEL,rat [1]; [15],≥ 200 ppm
same,LOAEL,rat [2]; [16],> 620 mg/kg/day
same,NOAEL,rat [2]; [16],≥ 620 mg/kg/day
same,LEL,rat [2]; [17],16 mg/kg/day
same,NEL,rat [2]; [17],< 16 mg/kg/day
same,LEL,mouse; [18],492 mg/kg/day
same,LOAEL,mouse; [18],> 1840 mg/kg/day
same,NEL,mouse; [18],< 492 mg/kg/day
same,NOAEL,mouse; [18],≥ 1840 mg/kg/day
same,LOAEL,mouse; [19],529 mg/kg/day
same,NOAEL,mouse; [19],295 mg/kg/day
same,LEL,mouse; [20],295 mg/kg/day
same,NEL,mouse; [20],< 295 mg/kg/day
same,LEL,rat [3]; [18],135 mg/kg/day
same,LOAEL,rat [3]; [18],> 785 mg/kg/day
same,NEL,rat [3]; [18],70 mg/kg/day
same,NOAEL,rat [3]; [18],≥ 785 mg/kg/day
same,LOAEL,"rat [3]; group: systemic, systemic / in life observation / body weight / body weight + systemic / pathology microscopic / spleen / fibrosis",135 mg/kg/day
same,NOAEL,"rat [3]; group: systemic, systemic / in life observation / body weight / body weight + systemic / pathology microscopic / spleen / fibrosis + systemic / clinical …",70 mg/kg/day
same,LEL,rat [3]; [21],70 mg/kg/day
same,NEL,rat [3]; [21],< 70 mg/kg/day
"CC(C)CCCCCCc1ccc(O)cc1 [4-Nonylphenol, branched]",LEL,rat [4]; [18],250 mg/kg/day
same,LOAEL,rat [4]; [18],> 250 mg/kg/day
same,NEL,rat [4]; [18],50 mg/kg/day
same,NOAEL,rat [4]; [18],≥ 250 mg/kg/day
same,LEL,rat [4]; [22],50 mg/kg/day
same,LOAEL,rat [4]; [22],> 250 mg/kg/day
same,NEL,rat [4]; [22],10 mg/kg/day
same,NOAEL,rat [4]; [22],≥ 250 mg/kg/day
same,LEL,rat [5]; [23],1.25 mg/kg/day
same,NEL,rat [5]; [23],< 1.25 mg/kg/day
same,LOAEL,rat [5]; [24],> 100 mg/kg/day
same,NOAEL,rat [5]; [24],≥ 100 mg/kg/day
same,LEL,rat [5]; [25],100 mg/kg/day
same,LOAEL,rat [5]; [25],> 100 mg/kg/day
same,NEL,rat [5]; [25],25 mg/kg/day
same,NOAEL,rat [5]; [25],≥ 100 mg/kg/day
same,NEL,"rat [6]; group: offspring, developmental / developmental landmark / vaginal opening / vaginal opening",10 mg/kg/day
same,LEL,rat [6]; [26],32.5 mg/kg/day
same,LOAEL,rat [6]; [26],> 100 mg/kg/day
same,NOAEL,rat [6]; [26],≥ 100 mg/kg/day
same,LOAEL,rat [6]; [27],> 100 mg/kg/day
same,NOAEL,rat [6]; [27],≥ 100 mg/kg/day
same,LEL,rat [6]; [28],10 mg/kg/day
same,NEL,rat [6]; [28],< 10 mg/kg/day
same,LOAEL,rat [6]; [29],> 100 mg/kg/day
same,NOAEL,rat [6]; [29],≥ 100 mg/kg/day
same,LEL,rat [6]; [30],10 mg/kg/day
same,NEL,rat [6]; [30],< 10 mg/kg/day
same,LOAEL,rat [7]; [31],> 171 mg/kg/day
same,NOAEL,rat [7]; [31],≥ 171 mg/kg/day
same,LEL,rat [7]; [32],18 mg/kg/day
same,NEL,rat [7]; [32],< 18 mg/kg/day
same,LOAEL,rat [7]; [33],> 122 mg/kg/day
same,NOAEL,rat [7]; [33],≥ 122 mg/kg/day
same,LEL,rat [7]; [34],18 mg/kg/day
same,NEL,rat [7]; [34],< 18 mg/kg/day
same,LEL,rat [7]; [35],171 mg/kg/day
same,LOAEL,rat [7]; [35],> 171 mg/kg/day
same,NEL,rat [7]; [35],53 mg/kg/day
same,NOAEL,rat [7]; [35],≥ 171 mg/kg/day
same,LEL,rat [8]; systemic / in life observation / body weight / body weight,50 mg/kg/day
same,NEL,rat [8]; systemic / in life observation / body weight / body weight + systemic / in life observation / body weight / body weight gain + systemic / …,15 mg/kg/day
same,LOAEL,rat [8]; [36],> 150 mg/kg/day
same,NOAEL,rat [8]; [36],≥ 150 mg/kg/day
CCCCCC(C)(CC)C(=O)NC (centres undefined) [N-Methylneodecanamide],LEL,rabbit; [37],200 mg/kg/day
same,LOAEL,rabbit; [37],200 mg/kg/day
same,NEL,rabbit; [37],100 mg/kg/day
same,NOAEL,rabbit; [37],100 mg/kg/day
same,LEL,rabbit; [38],200 mg/kg/day
same,LOAEL,rabbit; [38],200 mg/kg/day
same,NEL,rabbit; [38],100 mg/kg/day
same,NOAEL,rabbit; [38],100 mg/kg/day
same,LEL,rat [9]; [39],400 mg/kg/day
same,LOAEL,rat [9]; [39],400 mg/kg/day
same,NEL,rat [9]; [39],125 mg/kg/day
same,NOAEL,rat [9]; [39],125 mg/kg/day
same,LEL,rat [9]; [40],125 mg/kg/day
same,LOAEL,rat [9]; [40],125 mg/kg/day
same,NEL,rat [9]; [40],40 mg/kg/day
same,NOAEL,rat [9]; [40],40 mg/kg/day
same,LOAEL,dog [10]; [41],13.5 mg/kg/day
same,NOAEL,dog [10]; [41],< 13.5 mg/kg/day
same,LEL,dog [10]; [42],13.5 mg/kg/day
same,NEL,dog [10]; [42],< 13.5 mg/kg/day
same,LEL,rat [11],30 mg/kg/day
same,LOAEL,rat [11],30 mg/kg/day
same,NEL,rat [11],3 mg/kg/day
same,NOAEL,rat [11],3 mg/kg/day
same,LEL,dog [12],4.52 mg/kg/day
same,LOAEL,dog [12],4.52 mg/kg/day
same,NEL,dog [12],1.35 mg/kg/day
same,NOAEL,dog [12],1.35 mg/kg/day
